According to US7056734B1, “Differentiation of non-insulin producing cells into insulin producing cells by GLP-1 or exendin-4 and uses thereof” (The United States of America as represented by the …, priority 1998, dated 2006):

What was measured:
insulin mRNA = assay: Slot-blot quantitation of insulin mRNA in pancreata and islets; format: in vivo, rat; conditions: young and old animals, 48 hrs infusion, P<0.01
Text: (§1) The rats were implanted with an Alzet micro-osmotic pump (Alza Corp., Palo Alto, Calif.) in the interscapular region for 48 hrs. […] Control animals received normal saline in their pumps and received their infusion for the same length of time.
(§2) After an overnight fast, animals were sacrificed, pancreata were removed and frozen in liquid nitrogen as quickly as possible. RNA was extracted by homogenization in guanidinium isothiocyanate, followed by ultracentrifugation on a 5.7 M cesium chloride cushion (Glisin et al., 1974; Chigwin et al., 1979). Poly-A RNA was then prepared from total RNA by affinity chromatography using oligo (dT) columns (Biolabs INC, Beverly, Mass.). RNA was quantified by spectrophotometric analysis at […]. Slot-blot analysis using poly-A RNA was used for quantitation of mRNA levels of glucokinase, which is the main glucose sensor of the beta cell (Matschinsky, 1990), the three hexokinases, GLUT2, the major glucose transporter of the beta cell (Mueckler, 1990), and insulin. Four micrograms of poly-A RNA were diluted in 50 μl TE buffer (Tris-HCL 10 mM, EDTA 1 mM, pH 7.4), 20 μl of 37% formaldehyde and 20 μl of 10× SSC. Samples were incubated at 60° C. for 15 min and then diluted with 1 ml of ice-cold 10× SSC (1×SCC=0.15 M NaCl+0.015 sodium citrate). […]

GLUT2 mRNA = assay: Slot-blot quantitation of GLUT2 mRNA in pancreata and islets; format: in vivo, rat
Text: as §1, §2

Wistar rats = conditions: De Ore et al., 1997; cited from earlier work
Biological half-life = format: in vivo; conditions: compared with several minutes for GLP-1
[1] = test system: diabetic mice (C57BLKS/J-Lepr^db/Lepr^db); assay: Daily ip exendin-4 in diabetic mice; format: in vivo, mouse
Text: Animals. Four month old Wistar rats from the Wistar colony in the NIA (Baltimore, Md.) were used for the acute experiments of the effects of exendin-4 and GLP-1 (see Example 1). They had been maintained on standard lab chow and fed ad libitum. For the long-term experiments, diabetic mice (C57BLKS/J-Lepr^db/Lepr^db) lacking the leptin receptor, and their non-diabetic littermates were purchased at 4 weeks of age from Jackson Laboratories (Bar Harbor, Me.). They were housed two per cage and also were fed ad libitum. The same mice were caged together for the duration of the study. Wistar rats are caged on wire while the bedding for the mice was a paper based product, “Carefresh” (Absorption Co., Bellingham, Wash.).
Subsequently, whole blood glucose levels, taken from a retro-orbital sinus, were determined in the mice using a Glucometer Elite (Bayer). This regimen was continued for 12–13 weeks. […] Animals were weighed weekly. After one week of the regimen blood samples were again taken from a retro-orbital sinus for determination of insulin and glucose levels. At the end of the regimen, fasting blood samples were obtained for glucose and insulin levels and whole blood containing EDTA was assayed for hemoglobin A1c (Hb A1c) on the same day from the four groups.
Assays. Plasma glucose was measured by the glucose oxidase method (Wang et al., 1997). Insulin was measured by RIA as previously described (See Example 1). Hb A1c was assayed using a BIO-RAD (Herculas Calif.) DiaSTAT machine which uses low pressure cation exchange chromatography in conjunction with gradient elution to separate hemoglobin subtypes and variants from hemolyzed blood. The separated hemoglobin fractions were monitored by means of absorption of light at 415 nm.

rat acinar cells = conditions: Malhotra et al. 1992, cited from earlier work

| Molecule | insulin mRNA vs controls (insulin mRNA) | effect on decreased GLUT-2 mRNA levels (GLUT2 mRNA; old animals (decreased by 70% vs young controls), P<0.001) | effect on GLUT2 mRNA levels (GLUT2 mRNA; young animals) | dose giving maximal insulin response (Wistar rats) [nmol/kg] | half-life (Biological half-life) | blood sugar lowering at lower concentration compared with larger amount ([1]; 1 nmol/kg ip for one week, diabetic mice) | weight of the animal for the first 3–4 days of injection ([1]; back to same as NaCl-treated by the seventh day) | cage bedding 24 hours after changing vs NaCl-treated diabetic animals (urination) ([1]; diabetic mice, 9 weeks treatment) | fasting glucose levels ([1]; diabetic mice, 12–13 weeks, NaCl 517±59, p<0.005) [mg/dL] | fasting insulin levels ([1]; diabetic mice, 12–13 weeks, NaCl 707.2±169.7, p<0.02) | Hb A1c ([1]; diabetic mice, daily ip for 12–13 weeks, NaCl-treated 8.8%, p<0.0001) [%] | fasting glucose level after one week of treatment ([1]; diabetic mice, daily ip, NaCl-treated 238±51, p<0.002) [mg/dL] | deaths just after receiving exendin-4 ([1]; diabetic mice, day fourteen) | fasting insulin levels after one week vs NaCl ([1]; diabetic mice, p<0.002) | body weight at 13–14 weeks of treatment ([1]; diabetic mice, NaCl-treated 38.7 g) [g] | effects of the daily injections on behavior ([1]; long-term daily ip) | total amylase released (rat acinar cells; CCK alone vs 10^−8 M exendin-4 and CCK together) [%] | concentration at which increased cAMP was seen (rat acinar cells) |
| --- | --- | --- | --- | --- | --- | --- | --- | --- | --- | --- | --- | --- | --- | --- | --- | --- | --- | --- |
| CC[C@H](C)[C@H](NC(=O)[C@H](Cc1ccccc1)NC(=O)[C@H](CCC(=O)O)NC(=O)[C@H](CCCCN)NC(=O)[C@H](C)NC(=O)[C@H](C)NC(=O)[C@H](CCC(N)=O)NC(=O)CNC(=O)[C@H](CCC(=O)O)NC(=O)[C@H](CC(C)C)NC(=O)[C@H](Cc1ccc(O)cc1)NC(=O)[C@H](CO)NC(=O)[C@H](CO)NC(=O)[C@@H](NC(=O)[C@H](CC(=O)O)NC(=O)[C@H](CO)NC(=O)[C@@H](NC(=O)[C@H](Cc1ccccc1)NC(=O)[C@@H](NC(=O)CNC(=O)[C@H](CCC(=O)O)NC(=O)[C@H](C)NC(=O)[C@@H](N)Cc1c[nH]cn1)[C@@H](C)O)[C@@H](C)O)C(C)C)C(=O)N[C@@H](C)C(=O)N[C@@H](Cc1c[nH]c2ccccc12)C(=O)N[C@@H](CC(C)C)C(=O)N[C@H](C(=O)N[C@@H](CCCCN)C(=O)NCC(=O)N[C@@H](CCCNC(=N)N)C(N)=O)C(C)C [GLP-1] | increased | entirely reversed | did not significantly influence | 0.4 |  |  |  |  |  |  |  |  |  |  |  |  |  |  |
| exendin-4 |  |  |  |  | on the order of hours | just as effective | drops | obviously drier | 278.7 ± 30.0 | 4,600±1,114 pmol/l | 4.7 | 90 ± 11 | one of the diabetic mice died | higher | 46.7 | no untoward effects | 16 | 10^−8 M |
